Laboratory results as given in patent US20080103169A1, “COMPOSITIONS COMPRISING ACID LABILE PROTON PUMP INHIBITING AGENTS, AT LEAST ONE OTHER […] ACTIVE AGENT AND METHODS OF USING SAME” (priority 2006, published 2008).
Read-outs that look alike come from different tables or passages of the source. One block for each compound: values may come before it.

Assays:
[1] = PPI half-life (serum concentration profile), n of 1 studies; type: in vivo, human; conditions: for half-life: human, serum, Day 1, n of 1
Text: The measure of a PPIs activity can be predicted by looking at AUC above 1 micromole. The elimination rate (Kel) is the only variable that can be changed to increase the AUC for a given PPI. Half-life=0.693/Kel
These are all n of 1 studies all performed on the same subject. (Unless otherwise stated, 1.68 g NaHCO3 was used as buffering agent)

H+, K+-ATPase = target: T1, H+, K+-ATPase (Rattus norvegicus, UniProt P09626); conditions: cited from earlier work
T1 construct: host or cells: rats (in vivo treatment; endogenous gastric enzyme)
T1 sequence (P09626 whole entry): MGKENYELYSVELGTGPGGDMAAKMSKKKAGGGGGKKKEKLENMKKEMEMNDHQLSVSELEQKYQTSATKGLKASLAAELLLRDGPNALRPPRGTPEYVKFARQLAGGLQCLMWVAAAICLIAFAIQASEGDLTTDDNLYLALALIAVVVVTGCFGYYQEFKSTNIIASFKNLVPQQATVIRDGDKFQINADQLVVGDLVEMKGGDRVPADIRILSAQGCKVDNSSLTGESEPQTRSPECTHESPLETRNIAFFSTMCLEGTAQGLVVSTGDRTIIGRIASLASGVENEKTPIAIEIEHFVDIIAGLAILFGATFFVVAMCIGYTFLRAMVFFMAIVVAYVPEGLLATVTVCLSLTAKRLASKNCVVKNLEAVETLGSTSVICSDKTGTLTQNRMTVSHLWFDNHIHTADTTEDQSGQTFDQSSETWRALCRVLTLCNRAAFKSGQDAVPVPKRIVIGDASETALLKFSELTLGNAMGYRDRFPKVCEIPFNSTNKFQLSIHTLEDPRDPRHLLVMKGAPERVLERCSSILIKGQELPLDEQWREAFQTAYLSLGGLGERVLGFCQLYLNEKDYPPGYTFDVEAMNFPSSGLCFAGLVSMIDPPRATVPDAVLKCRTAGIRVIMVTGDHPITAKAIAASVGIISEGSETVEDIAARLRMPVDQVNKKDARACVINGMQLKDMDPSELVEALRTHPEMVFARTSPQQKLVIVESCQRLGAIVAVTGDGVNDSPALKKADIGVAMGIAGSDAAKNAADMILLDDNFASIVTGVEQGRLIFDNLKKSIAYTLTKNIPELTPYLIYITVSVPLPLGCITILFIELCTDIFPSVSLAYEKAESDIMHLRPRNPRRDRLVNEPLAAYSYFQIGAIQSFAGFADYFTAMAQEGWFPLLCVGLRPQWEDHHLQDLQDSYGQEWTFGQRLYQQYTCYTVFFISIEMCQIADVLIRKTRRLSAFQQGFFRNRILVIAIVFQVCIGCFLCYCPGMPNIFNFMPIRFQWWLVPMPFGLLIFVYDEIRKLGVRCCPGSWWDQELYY
T1 sequence (P18598 whole entry partner): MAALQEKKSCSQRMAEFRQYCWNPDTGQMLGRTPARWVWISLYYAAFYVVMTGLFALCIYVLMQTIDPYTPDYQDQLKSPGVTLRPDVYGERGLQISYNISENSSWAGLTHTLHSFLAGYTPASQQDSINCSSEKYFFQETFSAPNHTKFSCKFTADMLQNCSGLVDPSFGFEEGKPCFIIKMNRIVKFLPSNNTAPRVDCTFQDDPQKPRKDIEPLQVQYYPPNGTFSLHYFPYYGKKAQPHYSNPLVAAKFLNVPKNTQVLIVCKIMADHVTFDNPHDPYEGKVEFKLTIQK

[2] = oral, 120 mg, IR 120 mg given alone
[3] = oral, given as OME-IR 120 mg+Tenatoprazole IR 40 mg+Cimetidine 200 mg
[4] = oral, given as OME-IR 120 mg+Tenatoprazole IR 40 mg

- half-life ([1]; 40 mg, 40 mg given alone): 1.4 h
SMILES: COc1ccc2nc([S@@+]([O-])Cc3ncc(C)c(OC)c3C)[nH]c2c1 [esomeprazole]

- half-life ([1]; oral, given as OME-IR 80 mg+Lansoprazole IR 80 mg): 3.1 h
SMILES: Cc1c(OCC(F)(F)F)ccnc1C[S+]([O-])c1nc2ccccc2[nH]1 (stereo not shown) [lansoprazole]

- half-life of omeprazole ([1]; administered with cimetidine (FIG. 11)): three
- half-life [1, 2]: 1.8 h
- half-life ([1]; oral, given as OME-IR 120 mg+Cimetidine 200 mg): 2.1 h
- half-life [1, 3]: 1.8 h
- half-life [1, 4]: 1.8 h
SMILES: COc1ccc2[nH]c([S+]([O-])Cc3ncc(C)c(OC)c3C)nc2c1 (stereo not shown) [omeprazole, 5-methoxy-2-[[(4-methoxy-3,5-dimethyl-2-pyridinyl)methyl]sulfinyl]-1H benzimidazole]
- effect of omeprazole on H+, K+-ATPase activity (H+, K+-ATPase; rats pretreated with cimetidine, compared to control (no pretreatment)): much reduced effect
- effect of omeprazole on H+, K+-ATPase activity (H+, K+-ATPase; rats pretreated with secretogue carbachol): increased the effect of omeprazole

- half-life ([1]; oral, 40 mg, 40 mg given alone): 7 h
- half-life [1, 2]: 8.7 h
- half-life [1, 3]: 12.9 h
- half-life [1, 4]: 12.9 h
SMILES: COc1ccc2[nH]c([S+]([O-])Cc3ncc(C)c(OC)c3C)nc2n1 (stereo not shown) [tenatoprazole, 5-methoxy-2-[[(4-methoxy-3,5-dimethyl-2-pyridyl)methyl]sulfinyl]imidazo[4,5-b]pyridine]
